Values joined by “and” are separate entries in the source; they are usually repeats but may differ in a detail not shown here. Identical values can stand only once. “Also recorded” adds a separate entry of the source. Blank lines part the entries; values can stand above or below the compound they belong to.
Legend:
[1] = target: native α7 nAChR in hippocampal neurons (Rattus norvegicus, UniProt Q05941); assay type: cell-based
[2] = target: T1, human α7 nAChR (Homo sapiens, UniProt P36544); assay: Two-electrode voltage clamp; assay type: cell-based; conditions: for Concentration needed to reach 30% of the response of ACh: oocyte assay; for Maximal response vs 3 mmol/L ACh: peak current normalized to 3 mmol/L ACh
T1 sequence (P36544 23-502): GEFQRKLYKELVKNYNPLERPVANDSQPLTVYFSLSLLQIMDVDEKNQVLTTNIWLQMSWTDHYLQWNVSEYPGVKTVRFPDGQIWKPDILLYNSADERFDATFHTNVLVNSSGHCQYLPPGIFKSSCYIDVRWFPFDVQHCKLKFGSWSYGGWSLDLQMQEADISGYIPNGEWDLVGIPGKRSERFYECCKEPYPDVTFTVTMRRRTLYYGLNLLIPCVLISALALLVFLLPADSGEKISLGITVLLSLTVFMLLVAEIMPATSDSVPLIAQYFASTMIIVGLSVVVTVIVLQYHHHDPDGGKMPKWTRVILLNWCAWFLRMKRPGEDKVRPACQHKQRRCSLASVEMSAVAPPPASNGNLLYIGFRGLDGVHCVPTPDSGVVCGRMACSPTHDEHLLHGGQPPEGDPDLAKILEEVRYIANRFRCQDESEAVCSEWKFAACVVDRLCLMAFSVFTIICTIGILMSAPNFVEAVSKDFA

[3] = system: CA1 hippocampal pyramidal neurons; assay: Spontaneous IPSC recordings in hippocampal brain slices; assay type: cell-based, rat
[4] = system: ERK1/2 phosphorylation in PC12 cells; assay: Western blot of ERK1/2 phosphorylation in PC12 cells; assay type: cell-based, rat; conditions: pre-incubation 10 min
[5] = target: human α5β3γ2 GABAA receptor (Homo sapiens, UniProt P18507+P28472+P31644); assay: TEVC in Xenopus oocytes, GABAA α5β3γ2; assay type: cell-based
[6] = target: human α1β3γ2 GABAA receptor (Homo sapiens, UniProt P14867+P18507+P28472); assay: TEVC in Xenopus oocytes, GABAA α1β3γ2; assay type: cell-based
human α1β3γ2 GABAA receptor, sequence (P14867 28-456): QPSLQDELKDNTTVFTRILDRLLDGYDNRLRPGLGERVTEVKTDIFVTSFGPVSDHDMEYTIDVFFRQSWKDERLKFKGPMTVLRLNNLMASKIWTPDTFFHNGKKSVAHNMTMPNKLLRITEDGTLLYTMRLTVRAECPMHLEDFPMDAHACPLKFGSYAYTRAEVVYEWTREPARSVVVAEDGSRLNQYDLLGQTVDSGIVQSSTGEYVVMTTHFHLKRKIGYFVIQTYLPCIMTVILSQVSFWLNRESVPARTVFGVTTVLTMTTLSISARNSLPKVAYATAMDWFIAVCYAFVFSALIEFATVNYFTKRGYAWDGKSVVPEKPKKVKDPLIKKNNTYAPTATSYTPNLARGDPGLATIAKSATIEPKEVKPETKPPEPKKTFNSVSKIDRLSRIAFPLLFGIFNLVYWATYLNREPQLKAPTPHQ
human α1β3γ2 GABAA receptor, sequence (P28472 26-473): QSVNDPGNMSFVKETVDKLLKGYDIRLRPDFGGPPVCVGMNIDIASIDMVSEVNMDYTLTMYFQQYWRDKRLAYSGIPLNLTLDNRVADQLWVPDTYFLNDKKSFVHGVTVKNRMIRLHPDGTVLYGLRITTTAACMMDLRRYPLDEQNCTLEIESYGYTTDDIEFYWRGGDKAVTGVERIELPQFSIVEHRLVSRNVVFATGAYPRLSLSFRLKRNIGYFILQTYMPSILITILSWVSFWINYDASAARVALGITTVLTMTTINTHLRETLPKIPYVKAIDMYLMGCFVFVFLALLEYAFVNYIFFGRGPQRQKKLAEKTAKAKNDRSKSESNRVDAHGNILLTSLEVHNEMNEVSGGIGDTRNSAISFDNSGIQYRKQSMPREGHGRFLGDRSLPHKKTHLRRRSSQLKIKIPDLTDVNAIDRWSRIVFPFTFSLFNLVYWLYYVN
human α1β3γ2 GABAA receptor, sequence (P18507 40-475): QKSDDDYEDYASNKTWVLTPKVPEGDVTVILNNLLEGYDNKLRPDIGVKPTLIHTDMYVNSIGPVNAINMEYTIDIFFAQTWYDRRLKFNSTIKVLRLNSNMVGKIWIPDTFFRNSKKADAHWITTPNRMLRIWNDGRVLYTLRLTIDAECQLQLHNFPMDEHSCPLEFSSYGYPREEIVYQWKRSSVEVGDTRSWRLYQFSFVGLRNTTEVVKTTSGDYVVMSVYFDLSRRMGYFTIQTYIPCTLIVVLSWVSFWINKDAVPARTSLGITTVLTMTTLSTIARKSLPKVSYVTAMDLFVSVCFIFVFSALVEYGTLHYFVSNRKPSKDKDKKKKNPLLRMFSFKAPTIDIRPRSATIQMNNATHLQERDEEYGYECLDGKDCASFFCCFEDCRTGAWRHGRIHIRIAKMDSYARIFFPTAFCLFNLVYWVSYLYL

[7] = target: human α3β3γ2 GABAA receptor (Homo sapiens, UniProt P18507+P28472+P34903); assay: TEVC in Xenopus oocytes, GABAA α3β3γ2; assay type: cell-based
[8] = target: T2, α7 nAChR (Rattus norvegicus, UniProt Q05941); conditions: Ki ratio vs ACh
T2 sequence (Q05941 23-502): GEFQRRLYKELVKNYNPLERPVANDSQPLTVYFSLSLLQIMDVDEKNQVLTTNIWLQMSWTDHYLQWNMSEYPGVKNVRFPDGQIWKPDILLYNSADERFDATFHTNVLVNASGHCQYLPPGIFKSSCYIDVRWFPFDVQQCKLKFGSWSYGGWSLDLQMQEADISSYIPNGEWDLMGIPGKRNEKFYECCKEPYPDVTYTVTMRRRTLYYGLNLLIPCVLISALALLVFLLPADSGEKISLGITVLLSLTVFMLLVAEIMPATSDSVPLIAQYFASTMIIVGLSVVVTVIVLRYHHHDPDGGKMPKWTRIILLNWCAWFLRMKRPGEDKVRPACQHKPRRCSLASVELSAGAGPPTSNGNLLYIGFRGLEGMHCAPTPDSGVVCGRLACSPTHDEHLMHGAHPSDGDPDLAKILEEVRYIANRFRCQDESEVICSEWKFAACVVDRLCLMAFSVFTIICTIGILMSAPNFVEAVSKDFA

[9] = target: rat α4β2 nAChR (Rattus norvegicus, UniProt P09483+P12390); assay: TEVC in Xenopus oocytes, selectivity on α4β2; assay type: cell-based
rat α4β2 nAChR, sequence (P09483 31-630): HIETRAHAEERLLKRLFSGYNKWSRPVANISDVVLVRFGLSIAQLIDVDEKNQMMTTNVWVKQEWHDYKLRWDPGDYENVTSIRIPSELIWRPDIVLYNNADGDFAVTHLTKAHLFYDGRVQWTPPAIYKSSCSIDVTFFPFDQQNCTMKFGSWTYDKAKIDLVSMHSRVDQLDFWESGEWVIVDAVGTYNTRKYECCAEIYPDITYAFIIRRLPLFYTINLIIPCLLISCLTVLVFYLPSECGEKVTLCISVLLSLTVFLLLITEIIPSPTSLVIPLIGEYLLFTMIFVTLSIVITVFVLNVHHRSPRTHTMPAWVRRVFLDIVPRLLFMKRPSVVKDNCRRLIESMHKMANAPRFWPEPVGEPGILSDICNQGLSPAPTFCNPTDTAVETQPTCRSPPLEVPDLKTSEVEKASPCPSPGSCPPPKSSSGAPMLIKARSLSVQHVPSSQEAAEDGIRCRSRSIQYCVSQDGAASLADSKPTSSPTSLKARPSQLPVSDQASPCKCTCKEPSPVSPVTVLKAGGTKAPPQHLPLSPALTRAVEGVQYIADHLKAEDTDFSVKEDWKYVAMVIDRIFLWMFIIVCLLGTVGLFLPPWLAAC
rat α4β2 nAChR, sequence (P12390 25-500): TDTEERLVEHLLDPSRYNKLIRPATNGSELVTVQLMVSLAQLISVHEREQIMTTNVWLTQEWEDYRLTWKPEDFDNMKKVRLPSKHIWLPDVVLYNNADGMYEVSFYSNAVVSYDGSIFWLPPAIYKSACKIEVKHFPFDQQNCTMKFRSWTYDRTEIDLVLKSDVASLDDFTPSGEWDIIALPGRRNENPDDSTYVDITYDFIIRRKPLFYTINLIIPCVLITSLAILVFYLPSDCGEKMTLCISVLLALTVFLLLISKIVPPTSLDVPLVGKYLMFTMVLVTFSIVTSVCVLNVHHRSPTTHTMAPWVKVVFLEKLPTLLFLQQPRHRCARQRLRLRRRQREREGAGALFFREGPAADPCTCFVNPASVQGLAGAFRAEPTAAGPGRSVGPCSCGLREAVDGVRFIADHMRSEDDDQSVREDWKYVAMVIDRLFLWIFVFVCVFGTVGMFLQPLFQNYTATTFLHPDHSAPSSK

[10] = target: human α2β3γ2 GABAA receptor (Homo sapiens, UniProt P18507+P28472+P47869); assay: TEVC in Xenopus oocytes, GABAA α2β3γ2; assay type: cell-based
human α2β3γ2 GABAA receptor, sequence (P47869 29-451): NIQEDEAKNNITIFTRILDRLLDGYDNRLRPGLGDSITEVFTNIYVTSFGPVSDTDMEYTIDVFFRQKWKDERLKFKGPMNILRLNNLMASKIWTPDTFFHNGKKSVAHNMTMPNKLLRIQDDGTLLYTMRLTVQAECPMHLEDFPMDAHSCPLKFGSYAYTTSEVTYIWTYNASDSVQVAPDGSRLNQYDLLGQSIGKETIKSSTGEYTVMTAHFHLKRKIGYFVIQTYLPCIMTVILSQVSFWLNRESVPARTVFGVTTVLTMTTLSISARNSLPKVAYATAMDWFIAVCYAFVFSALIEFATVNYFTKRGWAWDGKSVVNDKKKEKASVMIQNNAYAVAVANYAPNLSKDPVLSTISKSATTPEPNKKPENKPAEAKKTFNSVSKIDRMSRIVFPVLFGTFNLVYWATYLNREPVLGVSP
human α2β3γ2 GABAA receptor, sequence (P28472 26-473): as the sequence (P28472 26-473) above
human α2β3γ2 GABAA receptor, sequence (P18507 40-475): as the sequence (P18507 40-475) above

[11] = target: T3, human 5-HT3A receptor (Homo sapiens, UniProt P46098); assay: TEVC in Xenopus oocytes, selectivity on 5-HT3A; assay type: cell-based
T3 sequence (P46098 24-478): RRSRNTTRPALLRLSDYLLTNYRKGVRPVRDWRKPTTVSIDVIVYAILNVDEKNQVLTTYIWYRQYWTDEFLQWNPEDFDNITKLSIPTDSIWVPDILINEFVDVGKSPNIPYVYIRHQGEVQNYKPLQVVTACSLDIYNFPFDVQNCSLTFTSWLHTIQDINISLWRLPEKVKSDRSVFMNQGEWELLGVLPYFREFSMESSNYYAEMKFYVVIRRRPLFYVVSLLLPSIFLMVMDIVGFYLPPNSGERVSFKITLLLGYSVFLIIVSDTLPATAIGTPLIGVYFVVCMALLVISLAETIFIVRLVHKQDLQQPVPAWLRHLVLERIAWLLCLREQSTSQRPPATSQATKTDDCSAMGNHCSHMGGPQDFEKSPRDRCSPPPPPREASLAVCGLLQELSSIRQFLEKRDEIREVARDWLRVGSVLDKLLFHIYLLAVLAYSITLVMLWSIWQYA

[12] = target: T1, human α7 nAChR; assay: TEVC, inhibition; assay type: cell-based
[13] = target: T2, α7 nAChR; assay: biochemical
[14] = target: rat α3β4 nAChR (Rattus norvegicus, UniProt P04757+P12392); assay: TEVC in Xenopus oocytes, selectivity on α3β4; assay type: cell-based
rat α3β4 nAChR, sequence (P04757 26-499): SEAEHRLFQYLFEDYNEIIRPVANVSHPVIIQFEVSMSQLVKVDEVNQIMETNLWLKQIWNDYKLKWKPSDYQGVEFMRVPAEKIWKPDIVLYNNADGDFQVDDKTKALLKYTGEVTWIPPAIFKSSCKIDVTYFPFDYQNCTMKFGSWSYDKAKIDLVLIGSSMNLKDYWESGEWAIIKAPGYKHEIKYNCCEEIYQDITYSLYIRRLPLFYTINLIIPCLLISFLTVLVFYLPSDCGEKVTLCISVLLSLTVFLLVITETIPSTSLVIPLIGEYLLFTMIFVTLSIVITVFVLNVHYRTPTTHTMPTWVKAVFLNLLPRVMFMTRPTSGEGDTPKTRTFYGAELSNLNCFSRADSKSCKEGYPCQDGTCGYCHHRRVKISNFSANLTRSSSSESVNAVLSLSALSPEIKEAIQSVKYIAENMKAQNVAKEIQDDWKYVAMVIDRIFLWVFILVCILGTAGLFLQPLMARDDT
rat α3β4 nAChR, sequence (P12392 21-495): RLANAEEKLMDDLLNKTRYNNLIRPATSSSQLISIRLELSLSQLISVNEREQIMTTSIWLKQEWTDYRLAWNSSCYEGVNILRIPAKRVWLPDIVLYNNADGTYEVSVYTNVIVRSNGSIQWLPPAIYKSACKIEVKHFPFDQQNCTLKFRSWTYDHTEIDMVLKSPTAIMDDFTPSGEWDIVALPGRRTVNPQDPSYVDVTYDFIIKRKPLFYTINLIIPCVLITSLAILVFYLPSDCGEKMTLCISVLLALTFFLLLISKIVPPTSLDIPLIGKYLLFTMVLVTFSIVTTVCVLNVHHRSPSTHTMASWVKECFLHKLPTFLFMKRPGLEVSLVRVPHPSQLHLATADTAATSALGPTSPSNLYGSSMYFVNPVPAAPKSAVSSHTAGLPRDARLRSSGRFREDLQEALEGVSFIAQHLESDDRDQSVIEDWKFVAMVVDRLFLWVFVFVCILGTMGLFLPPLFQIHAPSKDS

[15] = 100 μmol/L co-applied with 1 μmol/L GABA
[16] = 100 μmol/L, pre-incubation 1 min
[17] = Br-IQ17B alone, up to 100 μmol/L

native α7 nAChR in hippocampal neurons, sequence (Q05941 23-502): as the sequence (Q05941 23-502) above

Compound: CCN1C[C@]2(COC(=O)c3ccccc3N3C(=O)C[C@H](C)C3=O)CC[C@H](OC)[C@@]34[C@@H]5C[C@H]6[C@H](OC)[C@@H]5[C@](O)(C[C@@H]6OC)[C@@](O)([C@@H](OC)[C@H]23)[C@@H]14 [MLA, methyllycaconitine]
- Effect of MLA on Br-IQ17B-evoked native α7 current [1]: completely blocked
- Effect of MLA on α7 current evoked by Br-IQ17B ([2]; 10 nmol/L MLA, 30 μmol/L Br-IQ17B): inhibited; also recorded: completely blocked

- Effect of PNU-120596 on current activated by Br-IQ17B [1]: significantly enhanced
- Effect of PNU-120596 on current evoked by low concentration of ACh ([1]; PNU-120596 1 μmol/L, ACh 10 μmol/L): robustly increased
Compound: COc1cc(OC)c(NC(=O)Nc2cc(C)on2)cc1Cl [PNU-120596]
- sIPSC frequency with PNU-120596 alone ([3]; PNU-120596 1 μmol/L, 10 min, baseline 4.5±0.7 Hz): 4.6±0.7 Hz
- sIPSC amplitude with PNU-120596 alone ([3]; PNU-120596 1 μmol/L, 10 min, baseline 30.8±6.8 pA): 30.6±4.7 pA
- Effect of PNU-120596 alone on basal pERK/tERK ratio [4]: slight increase

Compound: CC(=O)OCC[N+](C)(C)C [ACh, acetylcholine]
- Current evoked in hippocampal neurons [1]: evoked α7 currents with fast onset and rapid decay

Compound: O=C(N[C@H]1CN2CCC1CC2)c1cc2cccc(Br)n2c1 [Br-IQ17B, N-[(3R)-1-azabicyclo[2,2,2]oct-3-yl]-5-bromoindolizine-2-carboxamide]
- Allosteric modulation of GABAA α5β3γ2 [5, 15]: no allosteric modulation
- Effect on GABAA α5β3γ2 [5, 16]: no observable effects
- Allosteric modulation of GABAA α1β3γ2 [6, 15]: no allosteric modulation
- Effect on GABAA α1β3γ2 [6, 16]: no observable effects
- sIPSC frequency with co-application of PNU-120596 and Br-IQ17B ([3]; Br-IQ17B 10 μmol/L + PNU-120596 1 μmol/L, 1–5 min, from 4.6±0.7 Hz): 7.8±0.7 Hz
- Increase of IPSC peak amplitudes of individual neurons ([3]; Br-IQ17B 10 μmol/L + PNU-120596 1 μmol/L, 5 out of 6 neurons, vs control or PNU120596 alone): 1.3 to 4.9 times
- IPSC amplitude in the one neuron out of six without amplitude change ([3]; co-application of Br-IQ17B and PNU-120596, vs 25.3±1.4 pA): 25.9±1.2 pA
- Allosteric modulation of GABAA α3β3γ2 [7, 15]: no allosteric modulation
- Effect on GABAA α3β3γ2 [7, 16]: no observable effects
- Fold more potent than ACh in [3H]-MLA displacement [8]: approximately 300 fold
- EC50 [9]: > 100 µM
- IC50 [9]: > 100 µM
- Agonist activity on α4β2 [9, 17]: did not induce any current; also recorded: no detectable agonist activity
- Effect on ACh-evoked α4β2 current ([9]; pre-incubation 1 min or co-application with ACh): no enhancement or inhibition
- Maximum effect vs 3 mmol/L ACh or 10 μmol/L 5-HT ([9]; α4β2, Rat): 0
- Current evoked in hippocampal neurons [1]: evoked α7 currents with fast onset and rapid decay
- Allosteric modulation of GABAA α2β3γ2 [10, 15]: no allosteric modulation
- Effect on GABAA α2β3γ2 [10, 16]: no observable effects
- EC50 [11]: > 100 µM
- Maximum effect vs 3 mmol/L ACh or 10 μmol/L 5-HT ([11]; 5-HT3A, Human): 0
- Agonist activity on 5-HT3A ([11]; Br-IQ17B alone, 0.1–100 μmol/L): did not show any agonist activities
- Hill coefficient, inhibition of 5-HT3A ([11]; co-applied with 10 μmol/L 5-HT): 2.1±0.1
- IC50 [12]: 0.0285 ± 0.0025 µM
- Effect of low concentration on ACh-mediated peak current ([12]; 3 nmol/L Br-IQ17B, 100 μmol/L ACh): increased the ACh-mediated peak current
- Hill coefficient, inhibition of ACh-evoked α7 current ([12]; 1-min sustained exposure, then 100 μmol/L ACh): 2.8±0.3
- Hill coefficient in the presence of PNU-120596 ([2]; co-applied with 1 μmol/L PNU-120596): 2.4±0.1
- Hill coefficient, activation of α7 current ([2]; compound alone): 1.2±0.1
- Concentration needed to reach 30% of the response of ACh [2]: 1.5 µmol/L
- Maximal response vs 3 mmol/L ACh [2]: 64.3%±3.6%
- Ki [13]: 0.0149 ± 0.0032 µM
- EC50 [14]: > 100 µM
- Agonist activity on α3β4 [14, 17]: did not induce any current; also recorded: no detectable agonist activity
- IC50 ([14]; IC50, inhibition of ACh-evoked α3β4 current, co-applied with 300 μmol/L ACh): ~382 µM and 382 µM and ~381 µM
- Hill coefficient, inhibition of α3β4 ([14]; co-applied with 300 μmol/L ACh): 0.9±0.1
- Maximum effect vs 3 mmol/L ACh or 10 μmol/L 5-HT ([14]; α3β4, Rat): 0

Compound: O=C(N[C@H]1CN2CCC1CC2)c1cc2cccc(Cl)c2s1 [EVP-6124]
- EC50 [2]: 0.45 ± 0.08 µM
- Concentration needed to reach 30% of the response of ACh [2]: 3 µmol/L
- Maximal response vs 3 mmol/L ACh [2]: 30.6%±1.8%

Reference: article PMC4648113 (Acta Pharmacologica Sinica, 2015)
